Experimental data: US11236078B2, “Heterocyclic inhibitors of the sodium channel” (priority 2014, dated 2022)

Tests used:
Assay type in all cases: cell-based
[1] = target: T1, rat Nav1.2 (rNav1.2) (Rattus norvegicus, UniProt P04775); assay: rNav1.2 slow inactivation block, automated patchclamp; conditions: HEK 293F cells stably expressing rNav1.2
T1 construct: expressed in transfected cells
From the text: (§1) The generation of HEK 293F cell lines stably expressing human Nav1.7 (h Nav1.7), human Nav1.5 (hNav1.5) and rat Nav1.2 (r Nav1.2) was achieved by subcloning SCN9A, SCN5A, and SCN2A genes into inducible expression vectors followed by transfection into target cells using standard techniques. In the case of h Nav1.7, an expression vector encoding the human Navβ1 auxiliary subunit gene, SCN1B, was co-transfected with the expression vector bearing the SCN9A gene. Clones were selected using appropriate selection agents (0.3 mg/mL Zeocin and 0.8 mg/mL Geneticin) and maintained in Dulbecco's Modified Eagle medium, 10% fetal bovine serum, 1% non-essential amino acids to ˜80% confluence at 37° C. in a humidified incubator with 95% atmosphere and 5% CO2.
(§2) On the day of each experiment, cells that were grown to 80% confluence in a T75 flask were harvested for use on PatchXpress (Molecular Devices, CA, USA). Following a recovery period at 37° C. in a humidified incubator with 95% atmosphere and 5% CO2 in Dulbecco's Modified Eagle Medium, the media was replaced with an external recording solution containing (in mM): 90 TEACl, 50 NaCl, 1.8 CaCl2, 1 MgCl2, 10 HEPES, 10 glucose, adjusted to pH 7.4 with TEAOH and 300 mOsm with sucrose. The internal recording solution contained (in mM): 129 CsF, 2 MgCl2, 11 EGTA, 10 HEPES, 6 NaCl, 3 Na2ATP adjusted to pH 7.2 with CsOH and 280 mOsm with sucrose. The automated liquid handling facility of PatchXpress dispensed cells and added compound. Modulation of Nav1.7 channels by compounds was assessed by promoting the channels into the inactivated state using a conditioning voltage pulse of variable amplitude, followed by a brief hyperpolarizing pulse with a subsequent depolarized voltage step to measure the current amplitude in the presence and absence of compound.
(§3) In some cases, the potency of compounds was measured using either the Patchliner automated patch clamp platform (Nanion) or manual patch clamp techniques. Both approaches allowed the compounds to be characterized based upon the ability of a compound to modulate use- and/or state-dependence across human Nav1.7 (hNav1.7), human Nav1.5 (hNav1.5) and rat Nav1.2 (rNav1.2). The potency data is tabulated in Table 2 and is represented by six data fields. Three of the six fields represent potency data measured with the Patchliner automated platform under varying use- and state-dependent electrophysiology protocols similar to the PatchXpress protocols detailed above. For example, the second data column describes the potency of compounds in their ability to block 50% of Nav1.7 channels when the channel is repetitively activated by depolarizing voltage potentials to induce slow inactivation in approximately 50% of channels (Table 2: h Nav1.7: IC50 Slow Inactivation Block, Automated Patchclamp). The next three data fields describe the data generated from manual patchclamp electrophysiology measurements using similar methods to those employed for automated patchclamp studies.

[2] = target: T2, human Nav1.5 (hNav1.5) (Homo sapiens, UniProt Q14524); assay: hNav1.5 slow inactivation block, automated patchclamp; conditions: HEK 293F cells stably expressing hNav1.5
T2 construct: expressed in transfected cells
T2 sequence (Q14524 whole entry): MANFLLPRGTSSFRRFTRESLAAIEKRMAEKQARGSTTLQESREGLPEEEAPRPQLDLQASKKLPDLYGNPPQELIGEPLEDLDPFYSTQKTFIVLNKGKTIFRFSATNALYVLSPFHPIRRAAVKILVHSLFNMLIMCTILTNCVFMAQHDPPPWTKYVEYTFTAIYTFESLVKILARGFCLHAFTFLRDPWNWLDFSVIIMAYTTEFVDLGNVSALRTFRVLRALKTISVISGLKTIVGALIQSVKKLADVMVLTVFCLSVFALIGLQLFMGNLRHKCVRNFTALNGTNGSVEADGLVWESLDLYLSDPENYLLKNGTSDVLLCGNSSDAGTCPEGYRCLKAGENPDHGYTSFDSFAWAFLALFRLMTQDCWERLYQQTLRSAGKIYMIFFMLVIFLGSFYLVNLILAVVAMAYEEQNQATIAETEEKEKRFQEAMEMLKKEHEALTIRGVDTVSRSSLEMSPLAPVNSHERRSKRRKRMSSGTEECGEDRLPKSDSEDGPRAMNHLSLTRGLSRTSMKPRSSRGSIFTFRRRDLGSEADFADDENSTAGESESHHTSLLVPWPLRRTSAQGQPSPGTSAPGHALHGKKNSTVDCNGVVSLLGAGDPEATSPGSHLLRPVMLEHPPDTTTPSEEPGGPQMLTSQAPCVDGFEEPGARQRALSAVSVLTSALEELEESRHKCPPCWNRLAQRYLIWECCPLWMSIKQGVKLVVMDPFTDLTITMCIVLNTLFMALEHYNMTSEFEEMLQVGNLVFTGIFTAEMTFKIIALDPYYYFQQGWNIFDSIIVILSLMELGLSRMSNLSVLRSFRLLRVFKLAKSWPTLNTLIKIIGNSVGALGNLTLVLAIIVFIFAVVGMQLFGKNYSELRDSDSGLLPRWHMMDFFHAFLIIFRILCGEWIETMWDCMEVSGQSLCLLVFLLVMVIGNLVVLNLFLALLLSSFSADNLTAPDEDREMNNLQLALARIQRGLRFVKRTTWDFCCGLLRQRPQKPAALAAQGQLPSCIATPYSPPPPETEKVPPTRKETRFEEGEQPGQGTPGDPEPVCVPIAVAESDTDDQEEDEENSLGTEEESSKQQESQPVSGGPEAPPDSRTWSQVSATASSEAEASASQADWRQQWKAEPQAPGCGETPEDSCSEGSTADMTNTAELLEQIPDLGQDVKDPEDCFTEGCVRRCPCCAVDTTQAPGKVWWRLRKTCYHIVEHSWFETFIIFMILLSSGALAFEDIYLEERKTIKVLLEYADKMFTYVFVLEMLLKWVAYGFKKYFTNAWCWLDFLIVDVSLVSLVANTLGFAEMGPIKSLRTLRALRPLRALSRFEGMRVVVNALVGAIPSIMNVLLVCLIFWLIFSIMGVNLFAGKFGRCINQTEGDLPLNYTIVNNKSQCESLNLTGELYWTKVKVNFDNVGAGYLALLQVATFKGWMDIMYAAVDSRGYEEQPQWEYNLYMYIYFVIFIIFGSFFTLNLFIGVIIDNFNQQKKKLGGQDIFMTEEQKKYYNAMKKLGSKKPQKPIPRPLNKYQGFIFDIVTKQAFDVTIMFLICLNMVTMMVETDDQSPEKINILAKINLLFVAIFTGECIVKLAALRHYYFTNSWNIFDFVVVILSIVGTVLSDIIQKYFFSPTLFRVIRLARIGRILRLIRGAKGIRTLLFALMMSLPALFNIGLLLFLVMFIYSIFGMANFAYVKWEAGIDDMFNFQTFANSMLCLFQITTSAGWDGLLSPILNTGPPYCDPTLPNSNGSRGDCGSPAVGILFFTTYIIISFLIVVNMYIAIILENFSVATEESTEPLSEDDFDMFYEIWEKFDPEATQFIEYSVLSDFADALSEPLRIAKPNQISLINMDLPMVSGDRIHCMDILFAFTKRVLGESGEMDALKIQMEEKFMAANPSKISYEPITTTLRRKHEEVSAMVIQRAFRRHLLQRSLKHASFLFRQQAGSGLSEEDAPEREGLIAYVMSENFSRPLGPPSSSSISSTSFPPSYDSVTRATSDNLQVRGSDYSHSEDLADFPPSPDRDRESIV
From the text: as §1
Inhibition of the TTX-resistant Nav1.5 sodium channel, a key cardiac ion channel, can have profound effects on the duration and amplitude of the cardiac action potential and can result in arrhythmias and other heart malfunctions. To assess the potential cardiac liability of compounds at an early stage in the drug discovery process, a Nav1.5 sodium channel screening assay can be performed on Molecular Device's PatchXpress™ automated electrophysiology platform. Under voltage-clamp conditions, Nav1.5 currents can be recorded from HEK cells expressing the human Nav1.5 channel in the absence and presence of increasing concentrations of the test compound to obtain an IC50 value. The external recording solution can contain (in mM): 90 TEACl, 50 NaCl, 1.8 CaCl, 1 MgCl2, 10 HEPES, 10 glucose, adjusted to pH 7.4 with TEA-OH and to 300 mOsm with sucrose (if necessary), while the internal patch pipette solution contained (in mM): 129 CsF, 2 MgCl2, 11 EGTA, 10 HEPES, 3 Na2ATP adjusted to pH 7.2 with CsOH and to 290 mOsm with sucrose (if necessary). Nav1.5 channel currents can be evoked using a cardiac action potential waveform at 1 Hz, digitized at 31.25 kHz and low-pass filtered at 12 kHz.
as §2
In some cases, the potency of compounds was measured using either the Patchliner automated patch clamp platform (Nanion) or manual patch clamp techniques. Both approaches allowed the compounds to be characterized based upon the ability of a compound to modulate use- and/or state-dependence across human Nav1.7 (hNav1.7), human Nav1.5 (hNav1.5) and rat Nav1.2 (rNav1.2). The potency data is tabulated in Table 2 and is represented by six data fields. Three of the six fields represent potency data measured with the Patchliner automated platform under varying use- and state-dependent electrophysiology protocols similar to the PatchXpress protocols detailed above. […]

[3] = target: T3, human Nav1.7 (hNav1.7) (Homo sapiens, UniProt Q15858); assay: hNav1.7 slow inactivation block, automated patchclamp; conditions: HEK 293F cells stably expressing hNav1.7, slow inactivation induced in approximately 50% of channels
T3 construct: expressed in transfected cells
T3 sequence (Q15858 whole entry): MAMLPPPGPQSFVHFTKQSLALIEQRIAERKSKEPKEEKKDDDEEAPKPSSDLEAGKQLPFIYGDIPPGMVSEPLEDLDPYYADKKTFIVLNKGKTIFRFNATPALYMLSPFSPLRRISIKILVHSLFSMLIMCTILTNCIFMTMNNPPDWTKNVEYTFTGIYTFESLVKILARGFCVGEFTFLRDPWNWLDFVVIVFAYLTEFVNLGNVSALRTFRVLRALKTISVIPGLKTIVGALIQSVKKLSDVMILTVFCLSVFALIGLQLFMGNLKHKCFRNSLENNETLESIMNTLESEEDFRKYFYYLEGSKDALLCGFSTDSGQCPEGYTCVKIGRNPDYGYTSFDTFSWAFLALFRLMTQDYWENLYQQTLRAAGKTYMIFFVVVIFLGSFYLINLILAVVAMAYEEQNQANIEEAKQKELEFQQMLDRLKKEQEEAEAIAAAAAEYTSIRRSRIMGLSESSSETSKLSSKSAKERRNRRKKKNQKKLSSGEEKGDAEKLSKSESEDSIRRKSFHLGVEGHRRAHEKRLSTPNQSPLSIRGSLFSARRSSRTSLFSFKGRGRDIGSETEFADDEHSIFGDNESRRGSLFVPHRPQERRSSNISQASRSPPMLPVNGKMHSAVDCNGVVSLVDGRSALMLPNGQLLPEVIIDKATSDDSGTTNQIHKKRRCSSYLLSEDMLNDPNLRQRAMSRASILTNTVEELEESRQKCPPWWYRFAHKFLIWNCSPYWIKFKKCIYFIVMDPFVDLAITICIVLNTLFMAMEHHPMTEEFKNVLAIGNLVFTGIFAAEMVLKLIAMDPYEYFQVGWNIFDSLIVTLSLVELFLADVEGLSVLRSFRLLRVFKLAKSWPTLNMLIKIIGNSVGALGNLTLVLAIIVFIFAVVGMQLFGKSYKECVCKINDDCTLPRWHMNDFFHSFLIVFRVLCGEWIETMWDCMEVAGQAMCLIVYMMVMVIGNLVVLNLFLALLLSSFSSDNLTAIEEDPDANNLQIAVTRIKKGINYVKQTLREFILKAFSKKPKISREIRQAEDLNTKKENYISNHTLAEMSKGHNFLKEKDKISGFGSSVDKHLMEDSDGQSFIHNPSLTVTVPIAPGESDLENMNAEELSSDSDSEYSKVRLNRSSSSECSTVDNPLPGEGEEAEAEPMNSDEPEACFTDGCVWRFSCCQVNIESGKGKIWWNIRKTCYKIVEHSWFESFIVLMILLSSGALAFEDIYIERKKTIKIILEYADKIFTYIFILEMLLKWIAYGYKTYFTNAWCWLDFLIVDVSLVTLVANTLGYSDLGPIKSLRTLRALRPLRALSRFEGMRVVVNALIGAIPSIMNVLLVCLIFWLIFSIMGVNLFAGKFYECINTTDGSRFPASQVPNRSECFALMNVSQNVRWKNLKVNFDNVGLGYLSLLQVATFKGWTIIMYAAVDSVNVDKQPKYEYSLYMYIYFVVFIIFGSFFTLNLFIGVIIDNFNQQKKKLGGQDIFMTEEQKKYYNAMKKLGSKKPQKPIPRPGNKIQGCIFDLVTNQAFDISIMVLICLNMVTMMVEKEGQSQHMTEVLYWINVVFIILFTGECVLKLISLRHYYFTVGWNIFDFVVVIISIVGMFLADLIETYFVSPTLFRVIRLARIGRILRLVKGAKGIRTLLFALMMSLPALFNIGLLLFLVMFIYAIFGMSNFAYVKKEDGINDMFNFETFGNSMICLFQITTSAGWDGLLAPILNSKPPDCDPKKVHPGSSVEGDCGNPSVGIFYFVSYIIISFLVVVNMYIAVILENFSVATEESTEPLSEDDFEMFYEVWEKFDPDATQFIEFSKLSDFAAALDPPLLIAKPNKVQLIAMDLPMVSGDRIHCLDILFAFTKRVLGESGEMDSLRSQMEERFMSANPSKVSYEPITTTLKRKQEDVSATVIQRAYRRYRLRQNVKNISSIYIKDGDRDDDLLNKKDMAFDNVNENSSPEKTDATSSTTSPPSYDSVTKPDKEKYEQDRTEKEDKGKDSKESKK
T3 sequence (Q07699 19-218 partner): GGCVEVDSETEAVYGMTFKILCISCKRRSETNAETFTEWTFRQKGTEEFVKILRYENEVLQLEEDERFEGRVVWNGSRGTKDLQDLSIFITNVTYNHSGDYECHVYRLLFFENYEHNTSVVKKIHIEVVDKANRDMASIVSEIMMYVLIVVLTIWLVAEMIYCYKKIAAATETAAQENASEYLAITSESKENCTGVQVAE

[4] = target: T2, human Nav1.5 (hNav1.5); assay: hNav1.5 slow inactivation block, manual patchclamp; conditions: HEK 293F cells stably expressing hNav1.5
From the text: as §1, with “CO2. […]” for “CO2.”
as §2, §3

[5] = target: T3, human Nav1.7 (hNav1.7); assay: hNav1.7 slow inactivation block, manual patchclamp; conditions: HEK 293F cells stably expressing hNav1.7, slow inactivation induced in approximately 50% of channels
[6] = target: T1, rat Nav1.2 (rNav1.2); assay: rNav1.2 slow inactivation block, manual patchclamp; conditions: HEK 293F cells stably expressing rNav1.2

Row | Compound | IC50 [1] | IC50 [3] | IC50 [5] | IC50 [6] | IC50 [2] | IC50 [4]
1 | O=S(=O)(Nc1ncns1)c1cc(F)c(Oc2cc(N3CCC3)cc(C(F)(F)F)c2)cc1F [Compound 48, 4-[3-(azetidin-1-yl)-5-(trifluoromethyl)phenoxy]-2,5-difluoro-N-(1,2,4-thiadiazol-5-yl)benzenesulfonamide] |  | ~3060 nM | 142 nM |  | ~6660 nM | ~650 nM
2 | COc1cc(Oc2cc(F)c(S(=O)(=O)Nc3nc(C)ns3)cc2F)cc(C(F)(F)F)c1 [Compound 40, 2,5-difluoro-4-[3-methoxy-5-(trifluoromethyl)phenoxy]-N-(3-methyl-1,2,4-thiadiazol-5-yl)benzene-1-sulfonamide] |  | > 32000 nM | > 3200 nM |  | > 32000 nM | 

More lines, main results first:

Row | IC50 [1] | IC50 [3] | IC50 [5] | IC50 [6] | Compound | IC50 [2] | IC50 [4]
3 | 5540 nM | 4440 nM | 466 nM | 928 nM | O=C(NCc1cccc(-c2cc(C(F)(F)F)cc(C(F)(F)F)c2)c1)[C@@H]1C[C@H](F)CN1 [Compound 52, (2S,4S)-N-((3′,5′-bis(trifluoromethyl)-[1,1′-biphenyl]-3-yl)methyl)-4-fluoropyrrolidine-2-carboxamide] | 4050 nM | 1040 nM
4 |  | ~7680 nM | 404 nM |  | O=S(=O)(Nc1ncns1)c1cc(F)c(Oc2cc(N3CC(O)C3)cc(C(F)(F)F)c2)cc1F [Compound 49, 2,5-difluoro-4-[3-(3-hydroxyazetidin-1-yl)-5-(trifluoromethyl)phenoxy]-N-(1,2,4-thiadiazol-5-yl)benzenesulfonamide] | ~17200 nM | 1600 nM
5 |  | > 32000 nM | > 10000 nM |  | N#Cc1cc(Oc2cc(C(F)(F)F)cc(C(F)(F)F)c2)ccc1S(=O)(=O)Nc1nncs1 [Example 43, 4-[3,5-bis(trifluoromethyl)phenoxy]-2-cyano-N-(1,3,4-thiadiazol-2-yl)benzene-1-sulfonamide] | > 32000 nM | 
